Publication PMC8448343, “Characterisation of novel functionality within the Blastocystis tryptophanase gene” (PLoS Neglected Tropical Diseases, 2021)

Molecular target: T1, BhTnaA (Blastocystis ST7-B tryptophanase) (Blastocystis hominis, UniProt D8M5A5)
T1 construct: gene GSBLH_T00003147001; pGEX-6P-1, N-terminal GST tag cut with PreScission protease; E. coli BL21
T1 sequence (D8M5A5 1-544): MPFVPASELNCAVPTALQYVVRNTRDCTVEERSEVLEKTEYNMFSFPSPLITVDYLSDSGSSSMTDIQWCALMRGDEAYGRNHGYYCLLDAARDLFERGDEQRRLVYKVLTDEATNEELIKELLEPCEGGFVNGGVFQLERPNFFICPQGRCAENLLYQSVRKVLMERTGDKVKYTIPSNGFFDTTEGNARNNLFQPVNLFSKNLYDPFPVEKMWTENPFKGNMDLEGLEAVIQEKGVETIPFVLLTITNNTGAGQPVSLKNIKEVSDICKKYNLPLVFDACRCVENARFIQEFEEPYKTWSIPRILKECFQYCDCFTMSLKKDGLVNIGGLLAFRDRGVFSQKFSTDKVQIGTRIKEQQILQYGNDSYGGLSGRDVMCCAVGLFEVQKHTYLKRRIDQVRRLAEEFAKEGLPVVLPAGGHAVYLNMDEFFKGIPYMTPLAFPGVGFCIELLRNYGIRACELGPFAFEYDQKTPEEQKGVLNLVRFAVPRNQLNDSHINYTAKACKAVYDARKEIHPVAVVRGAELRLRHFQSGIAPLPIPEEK
Assay: indole formation, Ehrlich's reagent, […] nm, Hanes-Woolf plot
Assay type: biochemical
Settings: forward reaction (tryptophan to indole); PLP 0.165 mM; pH 7.5; 37 °C; toluene-layered; exact value only in Fig 4D

Q: With `N[C@@H](Cc1c[nH]c2ccccc12)C(=O)O` [L-tryptophan] as the compound, how does the Km read?
A: > 3 mM
